Patent publication US20090246880A1, “Method for preventing degradation of diacetylpolyamine” (priority 2008, published 2009)

Experimental: The present invention will next be described in detail by way of examples, which should not be construed as limiting the invention thereto. The percent degradation of diacetylspermine (%) in a sample was calculated on the basis of the amount of diacetylspermine as determined through ELISA. […] Subsequently, the pH of the mixture was adjusted with 50 mM phosphate buffer to 5.5, 6.0, 6.5, 7.0, 7.5, or 8.0. Thereafter, the reaction mixture was incubated at 37° C. for two hours. […] Subsequently, the ratio of the amount of diacetylspermine degraded through incubation to the initial amount of diacetylspermine was calculated.

For CC(=O)NCCCNCCCCNCCCNC(C)=O [diacetylspermine], which “degradation of diacetylspermine (in words)” value is on record?
The value was “prevented”.
